Values joined by “and” are separate entries in the source; they are usually repeats but may differ in a detail not shown here. Identical values can stand only once.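 Where inhibition never reached the appropriate level, the endpoint shown equals the highest concentration tested. Otherwise, values were interpolated linearly from a five-concentration, 48-hour dose response in 96-well plates. Here, GI50 denotes the concentration required for 50% inhibition of growth. The concentration for full growth arrest is given as TGI.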
Test system: MDA-MB-468 breast
Experiment: NCI anticancer screen, dose series, 48 h

Row | Compound | GI50 | TGI
1 | Oc1ccc(/C=N/Nc2nc3ccccc3s2)c(O)c1 | 2.08 µM | 8.4 µM
2 | O=C(CC1(O)C(=O)Nc2ccc(Br)cc21)c1ccc(C(=O)NCC2CCC3(CC2)OOC2(CCCCC2)OO3)cc1 (stereo not given) | 3.13 µM | 20.3 µM
3 | C[C@@]1(c2ncncc2F)NC(=O)c2cc(-c3cn[nH]c3)ccc21 | 21.6 µM | 51.5 µM
4 | CCCC1CCC(O)(C(C)(O)C(=O)NC2C(=O)N3NCCCC3C(=O)N(O)C(C)C(=O)N3NCCCC3C(=O)N3NCC(O)CC3C(=O)NC(C)C(=O)OC2C(C)C)OC1CC (stereo not given) | > 25 µM | > 25 µM
5 | CN(C)CCOC1(Cc2ccc(Cl)cc2Cl)CCC(C(C)(C)C)CC1 (stereo not given) | 1.78 µM and 1.77 µM | 3.47 µM and 3.49 µM
6 | CCOC(=O)N1C/C(=C/c2ccc(OC)cc2)C(=O)/C(=C/c2ccc(OC)cc2)C1 | 1.54 µM | 4.04 µM
7 | CCCCCCNC(=O)Oc1ccc(/C(=C(\C)c2ccccc2)c2ccc(OCCN3CCCCC3)cc2)cc1 | 1.74 µM | 5.17 µM
8 | COc1cccc(Cn2cc3c(c2)-c2oncc2CC3)c1 | 0.196 µM | 0.582 µM
9 | CC[C@@H](C)[C@H]([C@H](CC(=O)N1CCC[C@@H]1[C@@H](OC)[C@H](C)C(=O)N[C@H](Cc1ccccc1)c1nccs1)OC)N(C)C(=O)[C@H](NC(=O)[C@@H](C(C)C)N(C)C)C(C)C | – | 67.2 µM
10 | C=CC[Se]C(=O)Cc1c(C)n(C(=O)c2ccc(Cl)cc2)c2ccc(OC)cc12 | 1.87 µM | 3.74 µM
11 | COc1cc2nc(-c3ccc(-n4cncc4-c4ccc(N)cc4)cc3)sc2c(OC)c1OC | 1.82 µM | 4.47 µM
12 | COc1ccccc1CNC(=O)C1c2ccccc2C(=O)N(CC(C)C)C1c1cccs1 (stereo not given) | 12 µM | 60.5 µM
13 | O=C(O)c1ccc(-c2ccc(C(=O)O)cc2I)c(I)c1 | > 100 µM | > 100 µM
14 | CN1CCN(Cc2ccc(NC(=O)c3[nH]ncc3Nc3ncnc4sccc34)cc2)CC1 | 0.38 µM | 2.56 µM
15 | COc1cccc2c1cc([N+](=O)[O-])c1c(C(=O)O)cc3c(c12)OCO3 | 8.57 µM | 26.1 µM
16 | COc1cc(-c2nn(C(=O)NS(=O)(=O)c3ccc(C)cc3)cc2-c2ccncc2)ccc1Cl | 2.91 µM | 19.8 µM
17 | Cc1ccccc1-n1c(/C=C\c2ccccn2)nc2ccccc2c1=O | 3.61 µM | 32.2 µM
18 | NC(N)=N/N=C/c1cccc(Cl)c1Cl | 1.52 µM | 3.24 µM
19 | COc1ccc2[nH]c(-c3cccc(N(C)C)c3)cc(=O)c2c1 | 13.3 µM | > 100 µM
20 | CC(C)c1cc(CNc2nc(Nc3cc(C4CC4)[nH]n3)cc(N3CCN(C)CC3)n2)on1 | 1.3 µM | 5.5 µM and 2.2 µM
21 | BrC(Br)(Br)c1cnc2ccccc2n1 | 1.15 µM | 2.76 µM
22 | Cc1[nH]nc2c1N=C(c1ccccc1F)c1cc(C#N)ccc1N2 | 0.0932 µM | 7.2 µM
23 | CCCCCC(=O)OCC(=O)O[C@@H]1C[C@]2(C(C)C)O[C@@]1(C)[C@@H]1CC[C@@H](C)[C@H]1[C@@H]2OC(=O)/C=C/c1ccccc1 | 27 µM | > 76.9 µM
24 | Oc1ccc(Br)cc1/C=N/NC(=S)NC12CC3CC(CC(C3)C1)C2 | 1.8 µM | 4.77 µM

Row | Compound | GI50 | TGI
25 | CCn1c(-c2nonc2N)nc2c(C#CC(C)(C)O)nc(O[C@@H](CN)c3ccccc3)cc21 | 0.0173 µM | 0.435 µM
26 | COc1cc(C2CC(c3ccc4c(c3)OCO4)=NN2C(C)=O)cc(OC)c1OC (stereo not given) | 0.289 µM | 1.71 µM
27 | CN(Cc1ccccc1)S(=O)(=O)/N=C1\NC(=O)NC1=C(Cl)Cl | 0.427 µM | 12.8 µM
28 | Cc1ccc(S(=O)(=O)NC(CCC(=O)Nc2ccccc2)C(=O)Nc2ccccc2)cc1 (stereo not given) | 0.289 µM | 1.13 µM
29 | CCCC[P+](c1ccccc1)(c1ccccc1)c1ccccc1 | 0.219 µM | 2.37 µM
30 | O=C(NCCN1CCOCC1)Nc1ccc(-c2cc3c(Nc4ccc(Oc5cccc(C(F)(F)F)c5)c(Cl)c4)ncnc3s2)cc1 | 1 µM | 2.5 µM
31 | COc1ccc(NC(=O)Nc2ccc(Nc3nc(C)cc(Nc4ccc(C)cc4)n3)cc2)cc1 | 1.58 µM | 3.1 µM
32 | N=C(N)c1ccc(-c2ccc(-c3ccc(Cl)cn3)s2)cc1 | 1.6 µM | 3.41 µM
33 | COc1cnc2c(c1)C(=O)c1c-2n(CCCN2CCNCC2)c(=O)c2cc(Cl)ccc12 | 0.552 µM | 2.2 µM
34 | CN(C)CCOc1nc2c3cccnc3cc(-c3cccc(Cl)c3)c2c2ncccc12 | 1.43 µM | 2.86 µM
35 | COc1cc(-c2nc(SCC(=O)Nc3ccc(C(C)=O)cc3)[nH]c(=O)c2C#N)cc(OC)c1OC | 25.4 µM | > 100 µM
36 | O=C1C=CN(C2OC(CO)C(O)C2O)C(=O)C1 (stereo not given) | > 2500 µM | > 2500 µM
37 | CC[C@H](Nc1nc(N)nc(N)c1Cl)c1nc2cccc(NCc3ccc(C(=O)NO)cc3)c2c(=O)n1-c1ccccc1 | 1.5 µM | 3.42 µM
38 | CS(=O)c1ccc(-c2nc(-c3ccc(F)cc3)c(-c3ccncc3)[nH]2)cc1 (stereo not given) | 13.4 µM | > 60.6 µM
39 | COC(=O)[C@@H](Cc1c[nH]c2ccccc12)NC(=O)/C=C/c1ccccc1 | 2.57 µM | 25.9 µM
40 | O=C(Nc1cccc2cccnc12)c1ccc(N2C(=O)[C@@H]3[C@H](C2=O)[C@@H]2C=C[C@H]3C2)cc1 | 14.2 µM | 81.4 µM
41 | O=C(NCCCNC(=O)OCc1ccc2c(Br)cc(Br)c(O)c2n1)OCc1ccc2c(Br)cc(Br)c(O)c2n1 | > 100 µM | > 100 µM
42 | CCCCN(CCCC)CC(C)(C)C(O)c1ccc(OC)c2ccccc12 (stereo not given) | 1.56 µM | 3.97 µM
43 | CCCC(=O)NC(c1ccc2c(c1)OCO2)c1ccc2cccnc2c1O (stereo not given) | 0.388 µM | 2.53 µM
44 | COc1ccc(C2C(c3ccccc3)C(=O)N2c2cc(OC)c(OC)c(OC)c2)cc1I (stereo not given) | 0.373 µM | > 100 µM
45 | CC(F)(F)c1cc(F)ccc1-c1sc2cc(O)ccc2c1Oc1ccc(/C=C/C(=O)O)cc1 | 5.94 µM | 43.4 µM
46 | COC(=O)c1c2c(c(C)[n+]([O-])c1C)C(=O)C(NCc1cccc(OC)c1)=CC2=O | 1.52 µM | 3.84 µM
47 | COc1ccc(NC(=O)c2sc3nc(C)c(C(O)c4ccc(OC)cc4)cc3c2N)cc1 (stereo not given) | 0.145 µM | 1.61 µM
48 | O=C1/C(=C/c2ccc([N+](=O)[O-])s2)Oc2ccccc21 | 0.39 µM | 2.17 µM

From PubChem BioAssay (NCI)
